Reference: patent US5328913A, “Minoxidil analogs as inhibitors of cell proliferation and lysyl hydroxylase” (priority 1992, dated 1994)
Structures can show the parent of a compound that is named as a salt.

Columns and labels:
[1] = Solubility with acetone as solvent; assay type: physicochemical; conditions: acetone as the solvent; concentrations higher than 500 μM could not be tested
[2] = test system: lysyl hydroxylase; test: Lysyl hydroxylase activity in extracts of treated human skin fibroblasts (Example 1, tritium-release assay); assay type: cell-based; conditions: cultured fibroblasts; for effect on lysyl hydroxylase activity (in words): 72 h, Example 1
Protocol: (§1) Cultures of human skin fibroblasts grown to confluence were incubated for 72 h in medium supplemented with 1% ethanol containing various concentrations of minoxidil or deoxyminoxidil as indicated. Cells were then harvested, and the enzyme activities in extracts of these cells were measured by tritium-release assays (Murad and Pinnell, J. Biol. Chem. 262:11,973 (1987)). The results are expressed as percentages of zero-concentration values.
as §1, with “with 1% acetone containing various concentrations of minoxidil sulfate,” for “deoxyminoxidil”, “tritium release” for “tritium-release”
(§2) Skin fibroblast cultures derived from an apparently normal child (GM05659) were obtained from the Institute for Medical Research, Camden, N.J. The cells were subcultured by trypsinization and used before 25 population doublings. Typically, 4×10^5 cells were seeded onto 100-mm (diameter) plastic petri dishes and allowed to grow in 10 ml of Dulbecco's modified Eagle's minimum essential medium containing 5.6 mM glucose, buffered in pH 7.4 with 24 mM sodium biocarbonate/25 mM Hepes and supplemented with 20% (v/v) calf serum which had been inactivated for 30 min at 56° C. The cells were incubated at 37° C. in a humidified atmosphere of 5% CO2 plus 95% air.
(§3) After a week, the medium was replaced with medium supplemented with 0.5% heat-inactivated diaylzed calf serum, and the incubation was continued for 72 h in the presence of minoxidil or one of its structural analogs. The compounds were dissolved in 95% ethanol, except minoxidil sulfate which was dissolved in acetone; the final solvent concentration was 1% (v/v). During the last 3 h of incubation, cells received 100 μM Na L-ascorbate to ensure complete hydroxylation of the polypeptide precursors of precollagen (Murad et al, J. Invest. Dermatol. 75:404 (1980)).
The medium was then removed and the cells were washed twice with a solution containing 0.14 M NaCl, 5 mM KCl, 0.3 mM Na2 PO4, and 0.4 mM KH2 PO4, adjusted to pH 7.4. The cells were detached from the plates with a solution containing 0.05% trypsin, 0.54 mM EDTA, 5.5mM glucose, 6.90mM NaHCO3, […], and 5 mM KCl. The trypsinization was terminated with 2 vol of 20% serum-supplemented medium, and the cell number in an aliquot of the suspension was determined using a Coulter counter.
The detached cells were collected by centrifugation at 500g for 6 min at 4° C. washed twice by suspending in phosphate-buffered NaCl/KCl as above, and then centrifuged. The cell pellet was suspended in a medium (1 ml/5×10^6 cells) containing 0.2 M NaCl, 0.1 M glycine, 50 μM dithiothreitol, 20 mM Tris-HCl, buffer (pH 7.5), 0.1% Triton X-100, and 0.01% soybean trypsin inhibitor. The suspension was sonicated for 30 s using a Branson sonifier cell disrupter. The lysate was centrifuged at 27,000g for 1 h at 4° C., and the resulting supernatant was used for prolyl and lysyl hydroxylase assays (Murad and Pinnell, J. Biol. Chem. 262:11, 973 (1987)). The enzyme activities are based on a unit of soluble cell protein.
(§4) The protein content of cell extracts was determined by a dye-binding technique using Bio-Rad reagent and protein standard (Bradford, Anal. Biochem. 72:248 (1976)).
Note: Cultures of human skin fibroblasts grown to confluence were
incubated for 72 h in medium supplemented with 1% ethanol containing 1 mM
of the indicated compounds. Cells were then harvested, and the enzyme
activity in extracts of these cells was measured by a tritiumrelease
incubated for 72 h in medium supplemented with 1% ethanol containing 1 nM

[3] = target: T1, lysyl hydroxylase (Homo sapiens, UniProt Q02809); test: Direct inhibition of enzyme activity in vitro / mixing experiments with cell extracts; assay type: biochemical
T1 sequence (Q02809 19-727): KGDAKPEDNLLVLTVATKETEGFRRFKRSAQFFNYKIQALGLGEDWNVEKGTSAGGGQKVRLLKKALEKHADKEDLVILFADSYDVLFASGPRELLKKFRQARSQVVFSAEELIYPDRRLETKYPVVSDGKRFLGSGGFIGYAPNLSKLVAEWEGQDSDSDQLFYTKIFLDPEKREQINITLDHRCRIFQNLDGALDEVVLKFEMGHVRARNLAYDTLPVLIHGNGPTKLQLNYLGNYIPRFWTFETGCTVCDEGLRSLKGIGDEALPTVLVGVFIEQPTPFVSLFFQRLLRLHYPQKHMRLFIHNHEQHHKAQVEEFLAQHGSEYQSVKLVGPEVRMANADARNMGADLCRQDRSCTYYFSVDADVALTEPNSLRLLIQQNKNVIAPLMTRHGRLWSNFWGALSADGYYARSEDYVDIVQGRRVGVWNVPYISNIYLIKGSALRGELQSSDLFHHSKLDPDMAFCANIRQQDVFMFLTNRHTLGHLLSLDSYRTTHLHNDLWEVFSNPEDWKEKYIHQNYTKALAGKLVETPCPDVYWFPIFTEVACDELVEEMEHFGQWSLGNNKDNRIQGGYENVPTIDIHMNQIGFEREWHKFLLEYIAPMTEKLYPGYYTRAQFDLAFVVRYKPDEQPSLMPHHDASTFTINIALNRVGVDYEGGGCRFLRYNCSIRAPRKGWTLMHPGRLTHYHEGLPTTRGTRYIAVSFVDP

[4] = test system: prolyl hydroxylase; test: Prolyl hydroxylase activity in extracts of treated human skin fibroblasts (Example 1, tritium-release assay); assay type: cell-based; conditions: cultured fibroblasts; for effect on prolyl hydroxylase activity (in words): 72 h, Example 1
Protocol: as §1
as §1, with “with 1% acetone containing various concentrations of minoxidil sulfate,” for “deoxyminoxidil”, “tritium release” for “tritium-release”
as §2, §3
The medium was then removed and the cells were washed twice with a solution containing 0.14 M NaCl, 5 mM KCl, 0.3 mM Na2 PO4, and 0.4 mM KH2 PO4, adjusted to pH 7.4. […] The trypsinization was terminated with 2 vol of 20% serum-supplemented medium, and the cell number in an aliquot of the suspension was determined using a Coulter counter. […]
as §4

[5] = test system: enzyme activity (lysyl hydroxylase, prolyl hydroxylase); test: Direct inhibition of enzyme activity, mixing experiments with extracts of treated cells and controls; assay type: biochemical, human
Protocol: The functional significance of the nitroxide oxygen in minoxidil was evaluated with a deoxy analog. Shown in FIG. 2 is a comparison of the effects of minoxidil and deoxyminoxidil on the activities of lysyl hydroxylase and the control enzyme prolyl hydroxylase in cultured fibroblasts.

Row | Compound | solubility (in words) [1] | effect on lysyl hydroxylase activity (in words) [2] | inhibition of lysyl hydroxylase activity in vitro (in words) [3] | effect on prolyl hydroxylase activity (in words) [4] | direct inhibition of enzyme activity (in words) [5] | IC50 ([2]; 72 h (FIG. 2), read-out: concentration required for 50% inhibition (lysyl hydroxylase)) [µM] | IC50 ([4]; 72 h (FIG. 2), read-out: concentration required for 50% effect (prolyl hydroxylase)) [µM]
1 | Nc1cc(N2CCCCC2)nc(N)[n+]1OS(=O)(=O)[O-] [Minoxidil sulfate] | limited solubility | suppressed lysyl hydroxylase activity in a manner almost identical to that observed with minoxidil | failed to inhibit lysyl hydroxylase activity in vitro | no change in prolyl hydroxylase activity | – | – | –
2 | Nc1cc(N2CCCCC2)nc(N)n1 [Deoxyminoxidil] | – | suppressed lysyl hydroxylase activity in a manner remarkably similar to that observed with minoxidil | – | suppressed prolyl hydroxylase activity in a dose-related manner | no evidence for direct inhibition of enzyme activity | 118 | 260
